Literature values as cited in US9101669B2, “Self-assembed conjugate and use thereof” (POSTECH ACADEMY-INDUSTRY FOUNDATION, priority 2012, dated 2015).

Settings: 1 to 1 host-guest complex, protonated forms, aqueous solution

binding constant	SMILES
≤ 10^12 M^−1	NCCCNCCCCNCCCN [SPM, spermine]
up to 10^10 M^−1	NCCCCCCN [DAH, 1,6-diaminohexane]
